Here are results for 2 compounds from patent publication US10065984B2, “Polymorphic forms of a steroid-like compound and methods for the preparation and use thereof” (Allergan, Inc., priority 2013, dated 2018).

Data set [1] can be described thus: Storage stability of crystalline Form 1, XRPD spectrum before and after storage. In kind it is physicochemical. As to the method:
X-Ray Powder Diffraction patterns were collected on a Bruker D8 diffractometer using Cu Kα radiation (40 kV, 40 mA), θ-2θ goniometer, and divergence of V4 and receiving slits, a Ge monochromator and a Lynxeye detector. Samples were run under ambient conditions as flat plate specimens. The sample was gently packed into a cavity cut into polished, zero-background (510) silicon wafer. The parameters of the data collection are: • Angular range: 2 to 42°2θ • Step size: 0.05°2θ • Collection time: 0.5 s/step
A sample of the steroid-like compound in crystalline Form 1 was stored for 7 days at 40° C. and 75% relative humidity. After that time an XRPD spectrum was obtained and compared to the XRPD spectrum of the sample before the storage at the elevated temperature and humidity. […] Similarly, another sample of the steroid-like compound in crystalline Form 1 was stored for 1 year at room temperature (21° C. and uncontrolled relative humidity).

Data set [2] in a line: Conversion of substantially amorphous material to crystalline Form 1 at elevated temperature and/or humidity. Format: physicochemical. From the text: In certain embodiments, a substantially amorphous form of the steroid-like compound contemplated for use herein can be converted into crystalline Form 1 by subjecting said amorphous material to elevated temperatures and/or elevated humidity sufficient to promote the desired conversion.
As used herein, “substantial portion thereof” refers to the major portion of the sample in question, i.e., greater than 50% of the sample, undergoes conversion from the amorphous form thereof to crystalline Form 1; in some embodiments, greater than 60% of the sample undergoes conversion from the amorphous form thereof to crystalline Form 1; in some embodiments, greater than 70% of the sample undergoes conversion from the amorphous form thereof to crystalline Form 1; in some embodiments, greater than 80% of the sample undergoes conversion from the amorphous form thereof to crystalline Form 1; in some embodiments, greater than 90% of the sample undergoes conversion from the amorphous form thereof to crystalline Form 1.

For `C[C@]12CCC(=O)C=C1CC[C@@H]1[C@@H]2[C@@H](O)C[C@@]2(C)[C@H]1CC[C@]2(OC(=O)c1ccccc1)C(=O)CO` [crystalline Form 1], the “change in the XRPD spectrum after storage” value in data set [1] (stored for 1 year at room temperature (21° C. and uncontrolled relative humidity)) was “no change”; in data set [1] (stored for 7 days at 40° C. and 75% relative humidity), “No noticeable change”.
As to `C[C@]12CCC(=O)C=C1CC[C@@H]1[C@@H]2[C@@H](O)C[C@@]2(C)[C@H]1CC[C@]2(OC(=O)c1ccccc1)C(=O)CO` [substantially amorphous form], the “solid form conversion on exposure” value in data set [2] (75% relative humidity at about 40° C. for about 1 week), in data set [2] (97% relative humidity at room temperature (about 25° C.) for about 2 weeks) and in data set [2] (temperature higher than about 110° C. for at least about 1 hour) was “conversion of a substantial portion thereof to crystalline Form 1” throughout.
